Assays:
Salmonella typhi = experiment: Mutagenic activity in a GLP study using Salmonella Typhimurium TA100 in presence of S9 fraction at 7.2-3600 ug/plate; assay type: toxicity, organism-based; conditions: salmonella enterica subsp. enterica […]
[1] = target: T1, Serotonin 3 receptor (5HT3) (Mus musculus) (UniProt Q9JHJ5+P23979); experiment: Antagonism at 5HT3 receptor in mice by von Bezold-Jarisch reflex inhibition at 10 mg/kg, ip; assay type: functional, organism-based; set-up: dose 10 mg/kg
[2] = target: T1, Serotonin 3 receptor (5HT3) (Mus musculus); experiment: Antagonism at 5HT3 receptor in mice by von Bezold-Jarisch reflex inhibition at 3 mg/kg, ip; assay type: functional, organism-based; set-up: dose 3 mg/kg

T1 sequence (P23979 whole entry, looked up): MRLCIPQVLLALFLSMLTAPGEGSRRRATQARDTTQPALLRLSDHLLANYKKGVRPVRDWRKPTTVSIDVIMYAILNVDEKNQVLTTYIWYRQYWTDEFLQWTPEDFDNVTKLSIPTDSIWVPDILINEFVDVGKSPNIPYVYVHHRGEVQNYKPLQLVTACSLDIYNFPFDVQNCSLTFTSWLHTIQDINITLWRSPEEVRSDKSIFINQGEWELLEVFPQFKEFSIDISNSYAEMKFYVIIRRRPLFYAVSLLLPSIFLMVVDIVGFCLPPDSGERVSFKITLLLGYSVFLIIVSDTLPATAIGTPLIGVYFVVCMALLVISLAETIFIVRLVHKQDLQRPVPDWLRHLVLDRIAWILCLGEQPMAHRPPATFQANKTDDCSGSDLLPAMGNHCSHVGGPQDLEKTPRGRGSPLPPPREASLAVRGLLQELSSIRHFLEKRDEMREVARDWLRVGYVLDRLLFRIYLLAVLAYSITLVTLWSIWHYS
T1 sequence (Q9JHJ5 whole entry, looked up): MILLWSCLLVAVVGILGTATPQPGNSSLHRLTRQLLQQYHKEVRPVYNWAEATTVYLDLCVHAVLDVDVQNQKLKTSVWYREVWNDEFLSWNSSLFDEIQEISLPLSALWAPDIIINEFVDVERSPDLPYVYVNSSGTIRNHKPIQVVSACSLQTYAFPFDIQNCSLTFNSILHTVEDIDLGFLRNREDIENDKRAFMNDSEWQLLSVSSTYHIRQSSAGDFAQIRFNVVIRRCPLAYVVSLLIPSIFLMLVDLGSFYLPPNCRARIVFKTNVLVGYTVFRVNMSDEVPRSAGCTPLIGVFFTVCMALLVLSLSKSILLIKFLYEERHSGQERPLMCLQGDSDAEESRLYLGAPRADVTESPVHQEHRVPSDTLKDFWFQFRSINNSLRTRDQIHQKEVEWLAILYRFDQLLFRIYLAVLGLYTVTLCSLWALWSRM

COc1cc(N)c(Cl)cc1C(=O)NC[C@@H]1CCN2CCC[C@@H]12
Activity (Salmonella typhi): Active
inhibition [1]: 87%
inhibition [2]: 57%
